Assay results published in PubChem BioAssay AID1259408 (Genetic Toxicology Data Bank (GENE-TOX), 2018).
Activity calls are given as the source filed them. How the calls were made is not given here.

Tested on: GENE-TOX genotoxicity assays, various organisms and cells
Assay: GENE-TOX mutagenicity studies
Conditions: for call: Assay Type: In vivo carcinogenicity studies
[1] = Species/Cell Type: Mammalian polychromatic erythrocytes, Assay Type: Micronucleus test, chromosome aberrations, Assay Code: MNT+, Evaluation Type: Evaluation B (Post-1980)
[2] = Species/Cell Type: Rat, Sex: Male, Assay Type: Sperm morphology, Assay Code: SPA+, Evaluation Type: Evaluation A (Pre-1980)
[3] = Species/Cell Type: Salmonella typhimurium (one or more of the five standard strains: TA98, TA100, TA1535, TA1537, and TA1538), Assay Type: Histidine reverse gene mutation, Ames assay, Assay Code: SALT, Evaluation Type: Evaluation A (Pre-1980)
[4] = Species/Cell Type: Human lymphocytes, Assay Type: Sister-chromatid exchange (SCE) in vitro, Assay Code: SCL+, Evaluation Type: Evaluation B (Post-1980)
[5] = Species/Cell Type: Human, Assay Type: Sister-chromatid exchange (SCE) in vitro, Assay Code: SC1+, Evaluation Type: Evaluation B (Post-1980)
[6] = Species/Cell Type: Nonhuman, Assay Type: Sister-chromatid exchange (SCE) in vitro, Assay Code: SC2T, Evaluation Type: Evaluation B (Post-1980)
[7] = Species/Cell Type: Mouse, Sex: Male, Assay Type: Sperm morphology, Assay Code: SPI+, Evaluation Type: Evaluation A (Pre-1980)
[8] = Species/Cell Type: Salmonella typhimurium (one or more of the five standard strains: TA98, TA100, TA1535, TA1537, and TA1538), Assay Type: Histidine reverse gene mutation, Ames assay, Assay Code: SAL+, Evaluation Type: Evaluation A (Pre-1980)
[9] = Species/Cell Type: Drosophila melanogaster, Assay Type: Sex-linked recessive lethal gene mutation, Assay Code: SRLT, Evaluation Type: Evaluation A (Pre-1980)

COC(=O)N/N=C/c1c[n+]([O-])c2ccccc2[n+]1[O-] was tested, and the mutagenic call [1] was “active; positive”.

For Cc1cc(O)c(C(C)C)cc1O, the mutagenic call (Species/Cell Type: Allium cepa, Assay Type: Chromosome aberrations, Assay Code: ALC-, Evaluation Type: Evaluation A (Pre-1980)) was “inactive; negative”.

In the case of CS(=O)(=O)OCCCOS(C)(=O)=O, the mutagenic call (Species/Cell Type: Drosophila melanogaster, Assay Type: Sex-linked recessive lethal gene mutation, Assay Code: SRL+, Evaluation Type: Evaluation A (Pre-1980)) is reported as “active; positive” and the mutagenic call [2] is reported as “active; positive”.

NCCNc1cccc2ccccc12 was tested, and the call (Species/Cell Type: Nonhuman, Assay Code: CCG-, Evaluation Type: Evaluation A (Pre-1980)) was “inactive; negative”.

O=NN(CCCO)CCCCO was tested, and the mutagenic call [3] was “no conclusion”.

Nc1ccc(-c2nc(N3CCOCC3)c3ccccc3n2)s1 was tested, and the mutagenic call [3] was “no conclusion”.

For C=C(C)c1ccccc1, the mutagenic call [4] was “active; positive” and the mutagenic call [5] was “active; positive”.

For CCC[N+](=O)[O-], the mutagenic call (Species/Cell Type: Mammalian polychromatic erythrocytes, Assay Type: Micronucleus test, chromosome aberrations, Assay Code: MNTT, Evaluation Type: Evaluation B (Post-1980)) was “no conclusion”.

CCCCCCCCC1CC1CCCCCCCC(=O)OCCOCCOC (configuration not stated) was tested, and the mutagenic call [6] was “no conclusion”.

O=C1CCC(=O)N1CN1CCOCC1 was tested, and the mutagenic call (Species/Cell Type: Arabidopsis species, Assay Type: Gene mutation, Assay Code: ARM-, Evaluation Type: Evaluation A (Pre-1980)) was “inactive; negative”.

With C[n+]1c2cc(N)ccc2cc2ccc(N)cc21 (tested in a mixture with another compound) the mutagenic call (Species/Cell Type: Aspergillus nidulans, Assay Type: Forward gene mutation, Assay Code: ASF+, Evaluation Type: Evaluation A (Pre-1980)) was “active; positive”, the mutagenic call (Species/Cell Type: Mammalian cell culture, nonhuman, Assay Type: Micronucleus test in vitro, chromosome aberrations, Assay Code: MN&+U, Dose Response: Unconfirmed positive response, Evaluation Type: Evaluation A (Pre-1980)) was “active; positive” and the mutagenic call (Species/Cell Type: Mammalian oocytes or early embryo, Assay Type: Chromosome aberrations in vivo, Assay Code: CYO-, Evaluation Type: Evaluation A (Pre-1980)) was “inactive; negative”. For the same compound, the mutagenic call (Species/Cell Type: Mammalian polychromatic erythrocytes, Assay Type: Micronucleus test, chromosome aberrations, Assay Code: MNT+U, Dose Response: Unconfirmed positive response, Evaluation Type: Evaluation A (Pre-1980)) was “active; positive”, the mutagenic call [7] was “active; positive” and the mutagenic call (Species/Cell Type: Saccharomyces cerevisiae, Assay Type: Mitotic recombination or gene conversion, Assay Code: YECT, Evaluation Type: Evaluation A (Pre-1980)) was “no conclusion”. For the same compound, the mutagenic call (Species/Cell Type: Saccharomyces cerevisiae, Assay Type: Mitotic recombination or gene conversion, Assay Code: YEH+, Evaluation Type: Evaluation A (Pre-1980)) was “active; positive” and the mutagenic call (Species/Cell Type: Salmonella typhimurium, Escherichia coli, Serratia marcesens, Assay Type: Forward and reverse gene mutation, host-mediated assay, Assay Code: HMN-, Evaluation Type: Evaluation A (Pre-1980)) was “inactive; negative”.

In the case of OC(O)C(Cl)(Cl)Cl, the mutagenic call (Species/Cell Type: Aspergillus nidulans, Assay Type: Aneuploidy, chromosome aberrations, Assay Code: ASN+, Evaluation Type: Evaluation A (Pre-1980)) is reported as “active; positive”, the mutagenic call (Species/Cell Type: Aspergillus nidulans, Assay Type: Mitotic recombination, Assay Code: ASG-, Evaluation Type: Evaluation A (Pre-1980)) is reported as “inactive; negative” and the mutagenic call (Species/Cell Type: Mammalian polychromatic erythrocytes, Assay Type: Micronucleus test, chromosome aberrations, Assay Code: MNTT, Evaluation Type: Evaluation A (Pre-1980)) is reported as “no conclusion”. For the same compound, the mutagenic call (Species/Cell Type: Mouse, Sex: Male, Assay Type: Sperm morphology, Assay Code: SPI-, Evaluation Type: Evaluation A (Pre-1980)) was “inactive; negative”, the mutagenic call (Species/Cell Type: Neurospora crassa, Assay Type: Aneuploidy, chromosome aberrations, Assay Code: NEN-, Evaluation Type: Evaluation A (Pre-1980)) was “inactive; negative” and the call (Species/Cell Type: Nonhuman, Assay Code: CCGT, Evaluation Type: Evaluation A (Pre-1980)) was “no conclusion”. For the same compound, the mutagenic call [8] was “active; positive”.

COc1cc2c[n+](C)c3c4cc5c(cc4ccc3c2cc1OC)OCO5 was tested, and the mutagenic call [3] was “no conclusion”.

For Nc1nccc2c1[nH]c1ccccc12, the mutagenic call (Species/Cell Type: Human, Assay Type: Sister-chromatid exchange (SCE) in vitro, Assay Code: SC1+D, Dose Response: With dose response, Evaluation Type: Evaluation B (Post-1980)) was “active; positive” and the mutagenic call [6] was “no conclusion”.

Cl/C=C/CCl was tested, and the mutagenic call [8] was “active; positive”.

With O=c1c(O)c(-c2ccccc2)oc2cc(O)cc(O)c12 the mutagenic call (Species/Cell Type: Mammalian polychromatic erythrocytes, Assay Type: Micronucleus test, chromosome aberrations, Assay Code: MNT+U, Dose Response: Unconfirmed positive response, Evaluation Type: Evaluation B (Post-1980)) was “active; positive” and the mutagenic call (Species/Cell Type: Nonhuman, Assay Type: Sister-chromatid exchange (SCE) in vitro, Assay Code: SC2+*, Activation: With metabolic activation, Evaluation Type: Evaluation B (Post-1980)) was “active; positive”.

In the case of CC(N)Cc1ccccc1 (configuration not stated), the mutagenic call (Species/Cell Type: Drosophila melanogaster, Assay Type: Aneuploidy, sex chromosome gain, chromosome aberrations, Assay Code: DAGT, Evaluation Type: Evaluation A (Pre-1980)) is reported as “no conclusion”, the mutagenic call (Species/Cell Type: Drosophila melanogaster, Assay Type: Aneuploidy, whole sex chromosome loss, chromosome aberrations, Assay Code: DACT, Evaluation Type: Evaluation A (Pre-1980)) is reported as “no conclusion” and the mutagenic call [9] is reported as “no conclusion”. The mutagenic call [1] was “active; positive”.

In the case of COc1cc2c(c3oc(=O)c4c(c13)CCC4=O)[C@H]1[C@@H](O2)O[C@@H](Cl)[C@@H]1Cl, the mutagenic call [8] is reported as “active; positive”.

In the case of CCN(CC)CCCNC(=O)C(=O)N/N=C/c1ccc([N+](=O)[O-])o1, the mutagenic call (Species/Cell Type: Escherichia coli WP2 UVRA, Assay Type: Tryptophan reverse gene mutation, Assay Code: WPU+D, Dose Response: With dose response, Evaluation Type: Evaluation A (Pre-1980)) is reported as “active; positive”.

In the case of CCN(CC)Cc1cc(Br)ccc1OCC(=O)N/N=C\c1ccc(OC)cc1, the mutagenic call (Species/Cell Type: Saccharomyces cerevisiae, Assay Type: Reverse gene mutation, Assay Code: YERT, Evaluation Type: Evaluation A (Pre-1980)) is reported as “no conclusion”.

With Cc1cc2c(C(C)C)c(O)c(O)c(C=O)c2c(O)c1-c1c(C)cc2c(C(C)C)c(O)c(O)c(C=O)c2c1O the mutagenic call [4] was “active; positive”, the mutagenic call [5] was “active; positive” and the mutagenic call (Species/Cell Type: Human, Sex: Male, Assay Type: Sperm morphology, Assay Code: SPH+, Evaluation Type: Evaluation A (Pre-1980)) was “active; positive”. The mutagenic call [7] was “active; positive”, the mutagenic call (Species/Cell Type: Rabbit, Sex: Male, Assay Type: Sperm morphology, Assay Code: SPRT, Evaluation Type: Evaluation A (Pre-1980)) was “no conclusion” and the mutagenic call [2] was “active; positive”.

With CC(=O)N(O)c1ccc2c(c1)Cc1ccccc1-2 the mutagenic call (Species/Cell Type: Chinese hamster lung (V79) cells, Assay Type: Forward gene mutation at the HPRT or ouabain locus, Assay Code: V79+, Evaluation Type: Evaluation A (Pre-1980)) was “active; positive”, the mutagenic call (Species/Cell Type: Chinese hamster ovary (CHO) cells, Assay Type: Forward gene mutation at the HPRT locus, Assay Code: CHO+, Evaluation Type: Evaluation B (Post-1980)) was “active; positive” and the mutagenic call [9] was “no conclusion”. The mutagenic call (Species/Cell Type: Escherichia coli polA (W3119 vs P3478), Assay Type: Rec-assay, DNA effects (bacterial DNA repair), Assay Code: RE1+, Evaluation Type: Evaluation A (Pre-1980)) was “active; positive”, the mutagenic call (Species/Cell Type: Fischer rat embryo (RLV/1706) cells, Assay Type: Cell transformation, viral enhanced, Assay Code: CTR+, Evaluation Type: Evaluation A (Pre-1980)) was “active; positive” and the mutagenic call (Species/Cell Type: Human diploid fibroblasts, Assay Type: Unscheduled DNA synthesis (UDS) in vitro, DNA effects, Assay Code: UDH+D, Dose Response: With dose response, Evaluation Type: Evaluation A (Pre-1980)) was “active; positive”. The mutagenic call (Species/Cell Type: Human lymphocytes, Assay Type: Sister-chromatid exchange (SCE) in vitro, Assay Code: SCLT, Evaluation Type: Evaluation A (Pre-1980)) was “no conclusion”, the mutagenic call [5] was “active; positive” and the mutagenic call (Species/Cell Type: Human, Assay Type: Sister-chromatid exchange (SCE) in vitro, Assay Code: SC1T, Evaluation Type: Evaluation A (Pre-1980)) was “no conclusion”. For the same compound, the mutagenic call (Species/Cell Type: Mouse (BALB/c-3T3) cells, Assay Type: Cell transformation, Assay Code: CTB+D, Dose Response: With dose response, Evaluation Type: Evaluation A (Pre-1980)) was “active; positive”, the mutagenic call (Species/Cell Type: Mouse embryo (AKR/ME) cells, Assay Type: Cell transformation, Assay Code: CTK-, Evaluation Type: Evaluation A (Pre-1980)) was “inactive; negative” and the mutagenic call (Species/Cell Type: Neurospora crassa, Assay Type: Reverse gene mutation, Assay Code: NER+, Evaluation Type: Evaluation A (Pre-1980)) was “active; positive”. For the same compound, the call (Species/Cell Type: Nonhuman, Assay Code: CCG+, Evaluation Type: Evaluation A (Pre-1980)) was “active; positive”, the mutagenic call (Species/Cell Type: Nonhuman, Assay Type: Sister-chromatid exchange (SCE) in vitro, Assay Code: SC2+D, Dose Response: With dose response, Evaluation Type: Evaluation A (Pre-1980)) was “active; positive” and the mutagenic call (Species/Cell Type: Rat primary hepatocytes, Assay Type: Unscheduled DNA synthesis (UDS) in vitro, DNA effects, Assay Code: UDP+, Evaluation Type: Evaluation A (Pre-1980)) was “active; positive”. For the same compound, the mutagenic call (Species/Cell Type: Saccharomyces cerevisiae, Assay Type: Mitotic recombination or gene conversion, Assay Code: YEC+, Evaluation Type: Evaluation A (Pre-1980)) was “active; positive”, the mutagenic call [8] was “active; positive” and the mutagenic call (Species/Cell Type: Syrian hamster embryo (SHE) cells, Assay Type: Cell transformation, clonal assay, Assay Code: CTC+D, Dose Response: With dose response, Evaluation Type: Evaluation A (Pre-1980)) was “active; positive”.

CCCCI was tested, and the mutagenic call (Species/Cell Type: Escherichia coli polA (W3119 vs P3478), Assay Type: Rec-assay, DNA effects (bacterial DNA repair), Assay Code: RE1T, Evaluation Type: Evaluation A (Pre-1980)) was “no conclusion”.

CC(=O)c1c(=O)cc(C)oc1=O was tested, and the mutagenic call (Species/Cell Type: Nonhuman, Assay Type: Sister-chromatid exchange (SCE) in vitro, Assay Code: SC2-, Evaluation Type: Evaluation A (Pre-1980)) was “inactive; negative” and the mutagenic call [6] was “no conclusion”.
